Assay results: patent US20110294794A1, “TREATMENT OF PROTEINOPATHIES USING A FARNESYL TRANSFERASE INHIBITOR” (Link Medicine Corporation, priority 2008, published 2011)
“Also recorded” adds a separate entry of the source.

Columns and labels:
LC3 = assay: Punctate LC3 immunostaining in SH-SY5Y cells; type: cell-based, human; conditions: 100 nM (FIG. 8b)
Experimental: Cell culture and immunocytochemistry: SH-SY5Y cells were grown in DMEM medium supplemented with 10% FBS and 1% pen/strep at 37° C. and 5% CO2. Cells were differentiated with 10 μM retinoic acid for 48 hr, then treated with the either rapamycin (100 nM or 1 μM) or with 100 nM of either LNK-754-TS or Tipifarnib for 48-72 hr. Cells were then fixed with 4% paraformaldehyde and stained for LC3 (Novus biological, NB100-2331, dilution 1:800) followed by secondary Alexa-564 anti-Rabbit (A-11011).
Autophagy was measured in a neuroblastoma cell culture system by three distinct approaches: quantitation of autophagy-related mRNA's, immunofluorescence microscopy of autophagosomes, and biochemical detection of the microtubule-associated protein 1 light chain 3 (LC3) a key protein that is required for autophagosome formation. Differentiated human neuroblastoma cells (SH-SY5Y) were treated for 72 hr with LNK-754-TS (0.01-100 nM), Zarnestra® (also referred to herein as tipifarnib) (100 nM) or rapamycin (1 μM).

TAU = assay: TAU441 transgenic mice, TAU immunoreactivity (AT180, HT7) in the amygdala; type: in vivo, mouse; conditions: 0.09 mg/kg once every 24 hours, three months
Experimental: Animals and treatments: Male and female human WT alpha-synuclein over-expressing transgenic mice^32 at 6 months of age were given vehicle (10% beta-cyclodextrin) or LNK-754-TS (0.09, 0.9 and 9 mg/kg) per oral gavage twice daily for 3 months or animals at 7 months of age were given vehicle (2.5% beta-cyclodextrin) or LNK-754-TS (2 mg/kg) once every three days for 3 months. Male and female TAU transgenic mice expressing TAU441 bearing the missense mutations V337M^50 and R406W under the control of the murine Thy-1 promoter with a CB6xC57BL/6 background were 5 months old at the time when the oral treatment for three months with LNK-754-TS (0.9 and 0.09 mg/kg) as well as vehicle (2.5% beta-cyclodextrin) was started. Female human APP/PS1 (APP (London V7171)/PS1(A246E)) over-expressing transgenic mice were treated with LNK-754-TS (0.9 mg/kg) or vehicle (2.5% beta-cyclodextrin) for 2 months or 12 days.
Immunohistochemistry and quantification of stained cells: For evaluation of α-synuclein immunoreactivity (IR), 5 sagittal cryo-cut sections (10 μm slice thickness) from five different layers were used for counting of IR cells in the cortex and hippocampus. […] IR positive cells were quantified using specialized image analysis software (Image Pro Plus, version 4.5.1.29). […] Images were evaluated with ImageProPlus (version 6.2) image analysis software. For APP/PS1 transgenic animals sagittal hemisections (40 μm) were collected and processed for Aβ immunohistochemistry using an 6E10 antibody, Thioflavin-S staining Primary antibodies were detected by the ABC method. […]
This study was designed to evaluate the effects of a treatment with LNK-754-TS dosed at 0.09 mg per kg on behavior, TAU and TAU-pT231 levels, and brain morphology of TAU441 Tg mice. Histological evaluations were performed to quantitatively evaluate TAU pathology. TAU depositions were determined using the monoclonal TAU-antibodies AT180 and HT7. […]

[1] = system: 3T3 H-ras (61L) xenograft tumor; conditions: continuous infusion, cited from earlier work
aged non-transgenic rats = assay: Morris water maze in aged non-transgenic rats; type: in vivo, rat; conditions: aged rats (22 months old), 0.3 mg/kg and 0.9 mg/kg once every 24 hours
Source text: Morris water maze (MWM) analysis of cognitive performance: In APP/PS1 transgenic animals, swimming behavior in a Morris Water Maze was videotaped and analyzed (Ethovision, Noldus, Wageningen, Netherlands). For mice, a place navigation test was used to locate the hidden platform in five blocks of three trials over three consecutive days. Each trial consists of a forced swim test of maximum 120 seconds, followed by 60 seconds of rest. The time each mouse needed for location of the platform was measured. For rats, a cued learning phase was first conducted, consisting of 3 trials per day for 5 days, using a visible platform of varying location. Each trial consisted of a forced swim test of maximum 60 seconds, followed by 10 minutes of rest. The time and path length each rat needed to locate the platform was measured.
In order to rule out the possibility that the rapid observed improvement in cognition described above arose from an alternative, transgene-independent mechanism, aged non-transgenic rats (22 months old) were treated with LNK-754-TS (0.3 mg/kg and 0.9 mg/kg, once every 24 hours) and their cognitive performance was measured by MWM and compared to that of younger rats (3 months old) of the same strain.

C#Cc1cccc(-c2cc(=O)n(C)c3ccc([C@](O)(c4ccc(Cl)cc4)c4cncn4C)cc23)c1 [LNK-754-TS, (R)-6-[(4-chlorophenyl)-hydroxyl-(1-methyl-1-H-imidazol-5-yl)-methyl]-4-(3-ethynylphenyl)-1-methyl-2-(1H)-quinonlinone (2S,3S)-dihydroxybutanedioate]
punctate LC3 immunostaining (number of LC3-positive puncta) (LC3): distinct increase; also recorded: increased | number of AT180 immunoreactive (affected) cells in the amygdala (TAU): comparable to those of baseline animals | phosphorylated Tau (AT180) immunoreactivity in the amygdala vs. vehicle (TAU): significantly decreased; also recorded: significant reduction; also recorded: significantly reduced | total Tau (HT7) immunoreactivity in the amygdala vs. vehicle (TAU): not significantly reduced; also recorded: did not change | continuous serum level at which significant inhibition of tumor growth was seen ([1]; 7 day treatment): above 100 ng/mL | inhibition of Ras farnesylation at which significant inhibition of tumor growth was seen ([1]; tumor tissue): ≥ 50% | cognitive performance (place learning curves, probe tests) (aged non-transgenic rats): no significant cognitive improvement
